The values that follow come from US20030125389A1, “Beta-amino acid derivatives useful for the treatment of bacterial infections” (priority 2001, published 2003).

In test [1] the test system is a variety of standard laboratory microorganisms. Particulars: cited from earlier work.
Test [2] relates to Escherichia coli ATCC 25922. In words: Mouse septicemia model. Particulars: ATCC25922, ICR male mice, E. coli ATCC 25922 intraperitoneally, compound PO or IV at 1 and 5 hours after inoculation, mortality recorded for 7 days. Format: in vivo. How it is done: Escherichia coli ATCC 25922 was used to test the efficacy of compounds in a mouse septicemia model using six ICR male mice per group. Mice were inoculated intraperitoneally with 2×10^5 cfu/mouse in 0.5 ml of Brain-Heart Infusion broth supplemented with 5% mucin. The compounds were tested at 40, 20, 10, 5 and 2.5 mg/kg orally (PO) or at 20, 10, 5 and 2.5 mg/kg intravenously (IV) at 1 and 5 hours after bacterial inoculation. Controls included vehicle control (0.9% NaCl, 10 ml/kg) and an antibiotic control with ampicillin. Mortality was recorded for 7 days, and an ED50 was determined by non-linear regression.

Test [3] concerns Gram negative and Gram positive bacteria. Conditions: against Gram negative and Gram positive bacteria; cited from earlier work.

With `CN(CC(=O)O)NC(=O)C[C@H](N)CCCN` [Deoxynegamycin, D-3,6-diaminiohexanoic acid-2-(carboxymethyl)-2-methylhyrazide], in test [1], the “antimicrobial activity in vitro” value was “broad-spectrum antibacterial and antifungal activity”.
For orientation: ED50 means the dose at which the effect has come halfway, by size or by number of responders. Take `CNC[C@H](O)C[C@@H](N)CC(=O)NN(C)CC(=O)O` [Example 1]: the ED50 in test [2] is under 40 mg/kg.
The same measure, in the same setting: as for `CN(CC(=O)O)NC(=O)C[C@H](N)C[C@@H](F)CN` [Example 5, {N′-[(3R)-Amino-6-amino-(5R)-fluorohexanoyl]-N-methylhydrazino}acetic acid], the figure is under 40 mg/kg; as for `CNC[C@H](F)C[C@@H](N)CC(=O)NN(C)CC(=O)O` [Example 7, {N′-[(3R)-Amino-(5R)-fluoro-6-methylaminohexanoyl]-N-methylhydrazino}acetic acid], under 40 mg/kg.
In the case of `CN(CC(=O)O)NC(=O)C[C@H](N)C[C@@H](O)CN` [Negamycin, [2-{(3R, 5R)-3,6-diamino-5-hydroxyhexanoyl}-1-methylhydrazino]acetic acid], in test [3], the inhibitory activity entry is recorded as “strong inhibitory activity”.
